Where “and” joins values, the source holds several entries; their conditions need not be identical. Equal entries are not always repeated. Inconclusive results are not listed. Calls of active or inactive are those of the source.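 How the source made its calls: active means signal drop with fitted half-maximal concentration no higher than twice the top valid tested concentration; inconclusive means flat curve with 30 to 70% signal loss, or poor fit; inactive means the rest, including signal rises and flat curves within 30%.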
Test system: HepG2 viability, CellTiter-Glo ATP luminescence, 48 h
Assay: HepG2 cell cytotoxicity, dose response, cytotoxicity control for Shn3 inhibitor project, CellTiter-Glo, cherry-picked (AID 624134)

| SMILES | AC50 |
| --- | --- |
| CC(=O)OC[C@]12CCC(C)=C[C@H]1O[C@@H]1[C@H](O)[C@@H](OC(C)=O)[C@@]2(C)[C@]12CO2 | > 70 µM (inactive) |
| CCN1CCN(Cc2ccc(NC(=O)c3cc(NC(=O)c4cc5cccc(OC)c5o4)cc(OC)c3)cc2C(F)(F)F)CC1 | 18.9 µM and 9.13 µM |
| CC(=O)OC1C(=O)OCC23CCC4(C)OC4C2OC2CC(OC(=O)C=CC=CC(=O)OCCC1C)C3(C)C21CO1 (stereo not given) | > 70 µM (inactive) |
| C[C@H]1[C@@H](OS(=O)(=O)O)C[C@@H]2C[C@H]([C@@H](O)c3cc(=O)[nH]c(=O)[nH]3)NC3=NC[C@H]1N32 | 8.33 µM |
| CC(=O)OCC12CC(OC(=O)CC(C)C)C(C)=CC1OC1C(O)C(OC(C)=O)C2(C)C12CO2 (stereo not given) | > 70 µM (inactive) |
